Experimental data from ChEMBL document CHEMBL1909294, “Translating clinical findings into knowledge in drug safety evaluation--drug induced liver injury prediction system (DILIps)” (PLoS Comput Biol, 2011).

Tests used:
Hepatotoxicity [1] = test system: Hepatotoxicity;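 on HepSE Combined Scores: combined hepatic side effect score as listed in the training data of the Drug Induced Liver Injury Prediction System (DILIps)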;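 on HepSE cholecystitis: Cholecystitis-related hepatic side effect score drawn from the DILIps (drug-induced liver injury prediction) training data set; call rule not given here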;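 on HepSE cholelithiasis: hepatic side effect score for cholelithiasis, drawn from the DILIps training data for predicting drug-induced liver injury; call rule not given here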; on HepSE hepatic failure: call rule not given here;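 on HepSE hepatitis: Hepatitis-related hepatic side effect score taken from the training data of DILIps, a prediction system for drug-induced liver injury; call rule not given here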;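 on HepSE hepatomegaly: hepatic side effect score for hepatomegaly, taken from the training set of the DILIps drug-induced liver injury prediction system; call rule not given here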;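 on HepSE liver function tests abnormal: hepatic side effect score taken from the DILIps (drug-induced liver injury prediction system) training data, here covering abnormal liver function test findings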
Hepatotoxicity [2] = test system: Hepatotoxicity; remark: listed apart in the source;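 on HepSE Combined Scores: combined hepatic side effect score as listed in the training data of the Drug Induced Liver Injury Prediction System (DILIps)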;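 on HepSE cholelithiasis: hepatic side effect score for cholelithiasis, drawn from the DILIps training data for predicting drug-induced liver injury; call rule not given here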; on HepSE hepatic failure: call rule not given here;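 on HepSE hepatitis: Hepatitis-related hepatic side effect score taken from the training data of DILIps, a prediction system for drug-induced liver injury; call rule not given here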;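 on HepSE hepatomegaly: hepatic side effect score for hepatomegaly, taken from the training set of the DILIps drug-induced liver injury prediction system; call rule not given here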;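 on HepSE liver function tests abnormal: hepatic side effect score taken from the DILIps (drug-induced liver injury prediction system) training data, here covering abnormal liver function test findings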
Hepatotoxicity [3] = test system: Hepatotoxicity; remark: listed apart in the source;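 on HepSE Combined Scores: combined hepatic side effect score as listed in the training data of the Drug Induced Liver Injury Prediction System (DILIps)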;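 on HepSE cholelithiasis: hepatic side effect score for cholelithiasis, drawn from the DILIps training data for predicting drug-induced liver injury; call rule not given here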; on HepSE hepatic failure: call rule not given here;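 on HepSE hepatitis: Hepatitis-related hepatic side effect score taken from the training data of DILIps, a prediction system for drug-induced liver injury; call rule not given here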;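 on HepSE hepatomegaly: hepatic side effect score for hepatomegaly, taken from the training set of the DILIps drug-induced liver injury prediction system; call rule not given here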;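 on HepSE liver function tests abnormal: hepatic side effect score taken from the DILIps (drug-induced liver injury prediction system) training data, here covering abnormal liver function test findings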
Hepatotoxicity [4] = test system: Hepatotoxicity; remark: listed apart in the source;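 on HepSE Combined Scores: combined hepatic side effect score as listed in the training data of the Drug Induced Liver Injury Prediction System (DILIps)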;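 on HepSE cholelithiasis: hepatic side effect score for cholelithiasis, drawn from the DILIps training data for predicting drug-induced liver injury; call rule not given here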; on HepSE hepatic failure: call rule not given here;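 on HepSE hepatitis: Hepatitis-related hepatic side effect score taken from the training data of DILIps, a prediction system for drug-induced liver injury; call rule not given here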;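 on HepSE hepatomegaly: hepatic side effect score for hepatomegaly, taken from the training set of the DILIps drug-induced liver injury prediction system; call rule not given here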;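 on HepSE liver function tests abnormal: hepatic side effect score taken from the DILIps (drug-induced liver injury prediction system) training data, here covering abnormal liver function test findings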
Hepatotoxicity [5] = test system: Hepatotoxicity; remark: listed apart in the source; on HepSE hepatic failure: call rule not given here
Hepatotoxicity [6] = test system: Hepatotoxicity; remark: listed apart in the source; on HepSE hepatic failure: call rule not given here
Hepatotoxicity [7] = test system: Hepatotoxicity; remark: listed apart in the source
Hepatotoxicity [8] = test system: Hepatotoxicity; remark: listed apart in the source
Hepatotoxicity [9] = test system: Hepatotoxicity; remark: listed apart in the source
Hepatotoxicity [10] = test system: Hepatotoxicity; remark: listed apart in the source
Hepatotoxicity [11] = test system: Hepatotoxicity; remark: listed apart in the source
Hepatotoxicity [12] = test system: Hepatotoxicity; remark: listed apart in the source
Hepatotoxicity [13] = test system: Hepatotoxicity; remark: listed apart in the source
Hepatotoxicity [14] = test system: Hepatotoxicity; remark: listed apart in the source

SMILES | HepSE_Combined Scores (Hepatotoxicity [1]) | HepSE_hepatitis (Hepatotoxicity [2]) | HepSE_hepatic necrosis (Hepatotoxicity [3]) | HepSE_hepatomegaly (Hepatotoxicity [4]) | HepSE_bilirubinemia (Hepatotoxicity [5]) | HepSE_hepatic failure (Hepatotoxicity [6]) | HepSE_liver function tests abnormal (Hepatotoxicity [7]) | HepSE_cholelithiasis (Hepatotoxicity [8]) | HepSE_liver fatty (Hepatotoxicity [9]) | HepSE_cholecystitis (Hepatotoxicity [10]) | HepSE_cirrhosis (Hepatotoxicity [11]) | HepSE_jaundice (Hepatotoxicity [12]) | HepSE_elevated liver function tests (Hepatotoxicity [13]) | HepSE_liver disease (Hepatotoxicity [14]) | also measured
CC1=C(/C=C/C(C)=C/C=C/C(C)=C/CO)C(C)(C)CCC1 [RETINOL] |  |  |  |  |  |  |  |  |  |  |  |  |  |  | HepSE_Combined Scores (Hepatotoxicity [1]; Liver): 0; HepSE_hepatitis (Hepatotoxicity [2]; Liver): 0; HepSE_hepatic necrosis (Hepatotoxicity [3]; Liver): 0; HepSE_hepatomegaly (Hepatotoxicity [4]; Liver): 0; HepSE_bilirubinemia (Hepatotoxicity [5]; Liver): 0; HepSE_hepatic failure (Hepatotoxicity [6]; Liver): 0; HepSE_liver function tests abnormal (Hepatotoxicity [7]; Liver): 0; HepSE_cholelithiasis (Hepatotoxicity [8]; Liver): 0; HepSE_liver fatty (Hepatotoxicity [9]; Liver): 0; HepSE_cholecystitis (Hepatotoxicity [10]; Liver): 0; HepSE_cirrhosis (Hepatotoxicity [11]; Liver): 0; HepSE_jaundice (Hepatotoxicity [12]; Liver): 0; HepSE_elevated liver function tests (Hepatotoxicity [13]; Liver): 0; HepSE_liver disease (Hepatotoxicity [14]; Liver): 0
NC(=O)c1ncn([C@@H]2O[C@H](CO)[C@@H](O)[C@H]2O)n1 [RIBAVIRIN] | 4 | 0 | 0 | 1 | 1 | 1 | 0 | 0 | 1 | 0 | 0 | 0 | 0 | 0 | 
CO[C@H]1/C=C/O[C@@]2(C)Oc3c(C)c(O)c4c(c3C2=O)C2=NC3(CCN(CC(C)C)CC3)NC2=C(NC(=O)/C(C)=C\C=C\[C@H](C)[C@H](O)[C@@H](C)[C@@H](O)[C@@H](C)[C@H](OC(C)=O)[C@@H]1C)C4=O [RIFABUTIN] |  |  |  |  |  |  |  |  |  |  |  |  |  |  | HepSE_Combined Scores (Hepatotoxicity [1]; Liver): 1; HepSE_hepatitis (Hepatotoxicity [2]; Liver): 1; HepSE_hepatic necrosis (Hepatotoxicity [3]; Liver): 0; HepSE_hepatomegaly (Hepatotoxicity [4]; Liver): 0; HepSE_bilirubinemia (Hepatotoxicity [5]; Liver): 0; HepSE_hepatic failure (Hepatotoxicity [6]; Liver): 0; HepSE_liver function tests abnormal (Hepatotoxicity [7]; Liver): 0; HepSE_cholelithiasis (Hepatotoxicity [8]; Liver): 0; HepSE_liver fatty (Hepatotoxicity [9]; Liver): 0; HepSE_cholecystitis (Hepatotoxicity [10]; Liver): 0; HepSE_cirrhosis (Hepatotoxicity [11]; Liver): 0; HepSE_jaundice (Hepatotoxicity [12]; Liver): 0; HepSE_elevated liver function tests (Hepatotoxicity [13]; Liver): 0; HepSE_liver disease (Hepatotoxicity [14]; Liver): 0
CO[C@H]1/C=C/O[C@@]2(C)Oc3c(C)c(O)c4c(O)c(c(/C=N/N5CCN(C)CC5)c(O)c4c3C2=O)NC(=O)/C(C)=C\C=C\[C@H](C)[C@H](O)[C@@H](C)[C@@H](O)[C@@H](C)[C@H](OC(C)=O)[C@@H]1C [RIFAMPIN] | 3 | 1 | 0 | 0 | 0 | 0 | 1 | 0 | 0 | 0 | 0 | 1 | 0 | 0 | 
CO[C@H]1/C=C/O[C@@]2(C)Oc3c(C)c(O)c4c(O)c(c(/C=N/N5CCN(C6CCCC6)CC5)c(O)c4c3C2=O)NC(=O)/C(C)=C\C=C\[C@H](C)[C@H](O)[C@@H](C)[C@@H](O)[C@@H](C)[C@H](OC(C)=O)[C@@H]1C [RIFAPENTINE] | 2 | 1 | 0 | 0 | 1 | 0 | 0 | 0 | 0 | 0 | 0 | 0 | 0 | 0 | 
CO[C@H]1/C=C/O[C@@]2(C)Oc3c(C)c(O)c4c(O)c(c5c(nc6cc(C)ccn65)c4c3C2=O)NC(=O)/C(C)=C\C=C\[C@H](C)[C@H](O)[C@@H](C)[C@@H](O)[C@@H](C)[C@H](OC(C)=O)[C@@H]1C [RIFAXIMIN] | 0 | 0 | 0 | 0 | 0 | 0 | 0 | 0 | 0 | 0 | 0 | 0 | 0 | 0 | 
Nc1nc2ccc(OC(F)(F)F)cc2s1 [RILUZOLE] | 3 | 1 | 0 | 0 | 0 | 0 | 0 | 0 | 0 | 1 | 0 | 1 | 0 | 0 | 
CC(N)C12CC3CC(CC(C3)C1)C2 (configuration not stated) [RIMANTADINE] | 0 | 0 | 0 | 0 | 0 | 0 | 0 | 0 | 0 | 0 | 0 | 0 | 0 | 0 | 
